Test results: patent US7241795B2, “Synthesis and antimicrobial activity of novel dicationic “reversed amidines”” (The University of North Carolina at Chapel Hill, priority 2000, dated 2007)
≈ marks a conversion by molar mass, not a printed value. Structures can show the parent of a compound that is named as a salt.

Key:
[1] = tested on: poly dA•dT; experiment: DNA thermal melting (ΔTm); assay type: binding
[2] = tested on: d(CGCGAATTCGCG)2; experiment: DNA thermal melting (ΔTm); assay type: binding; details: oligo = d(CGCGAATTCGCG)2
[3] = tested on: Candida albicans; experiment: Antifungal broth macrodilution susceptibility testing (MIC/MFC), yeast; assay type: cell-based; details: for MFC / MIC: Candida albicans; for MFC: read-out: C. albicans MFC; for MIC: read-out: C. albicans MIC
[4] = tested on: Aspergillus fumigatus; experiment: Antifungal broth macrodilution susceptibility testing (MIC/MFC), mold; assay type: cell-based; details: Aspergillus fumigatus, strain 168.95; for MFC: read-out: Aspergillus fumigatus MFC; for MIC: read-out: Aspergillus fumigatus MIC
[5] = tested on: M. tuberculosis H37Rv; experiment: Microplate Alamar Blue Assay (MABA) in BACTEC 12B medium; assay type: cell-based, Mycobacterium tuberculosis; details: for MIC / inhibition at 6.25 µg/mL: Mycobacterium tuberculosis, H37RV; for MIC: read-out: MTb MIC; for inhibition at 6.25 µg/mL: % Inhibition at 6.25 μg/ml, read-out: MTb % Inh
[6] = reference strain C. albicans A39
[7] = lowest concentration effecting ≧90% reduction of fluorescence

Row | Structure (SMILES) | melting point | DNA Affinities ΔTm (AT) [1] | DNA Affinities ΔTm (oligo) [2] | MFC [3, 6] [µg/mL] | MFC [4] [µg/mL] | MIC [4] [µg/mL] | MIC [3, 6] [µg/mL] | other results
1 | c1ccc(N=Nc2ccc(-c3ccc(-c4ccc(N=Nc5ccccn5)cc4)o3)cc2)nc1 (as salt: hydrochloride) (hydrate or solvate) [Compound 6a, 2,5-Bis[4-(2-pyridylimino)aminophenyl]furan] | 221 to 223 °C |  |  |  |  |  |  | 
2 | Cc1cc(N=Nc2ccc3ccccc3n2)ccc1-c1ccc(-c2ccc(N=Nc3ccc4ccccc4n3)cc2C)o1 (as salt: hydrochloride) [Compound 6i, 2,5-Bis[2-methyl-4-(2-quinolylimino)aminophenyl]furan] | 168 to 169 °C |  |  |  |  |  |  | 
3 | Cc1ccc(N=Nc2ccc(-c3ccc(-c4ccc(N=Nc5ccc(C)cn5)cc4C)o3)c(C)c2)nc1 (as salt: hydrochloride) [Compound 6j, 2,5-Bis[2-methyl-4-(5-methyl-2-pyridylimino)aminophenyl]furan] | 156 to 158 °C |  |  |  |  |  |  | 
4 | COc1cc(N=Nc2ccccn2)ccc1-c1ccc(-c2ccc(N=Nc3ccccn3)cc2OC)o1 (as salt: hydrochloride) [Compound 6k, 2,5-Bis[2-methoxy-4-(2-pyridylimino)aminophenyl]furan] | 196 to 197 °C |  |  |  |  |  |  | 
5 | Clc1cc(N=Nc2ccccn2)ccc1-c1ccc(-c2ccc(N=Nc3ccccn3)cc2Cl)o1 (as salt: hydrochloride) [Compound 6l, 2,5-Bis[2-chloro-4-(2-pyridylimino)aminophenyl]furan] | 189 to 190 °C |  |  |  |  |  |  | 
6 | N=C(Nc1ccc(-c2ccc(-c3ccc(NC(=N)c4ccccc4)cc3)s2)cc1)c1ccccc1 (hydrate or solvate) [DB 653, 2,5-Bis[4-(benzimidoyl)aminophenyl]thiophene] | 284 to 286 °C (dec.) |  |  |  |  |  |  | 
7 | N=C(N)c1ccc(-c2ccc(-c3ccc(C(=N)N)cc3)o2)cc1 [2,5-bis [4-amidinophenyl]furan, reference compound] |  | 25 | 11.7 |  |  |  |  | 
8 | Cl.Cl.N=C(N)Nc1ccc(-c2ccc(-c3ccc(NC(=N)N)cc3)o2)cc1 [Compound 5a, 2,5-Bis(4-guanidinophenyl)furan dihydrochloride] |  | 21.6 | 10.8 | 25 | > 100 | 100 |  | activity against C. albicans, in words [3]: fungicidal
9 | Cc1cc(NC(=N)N)ccc1-c1ccc(-c2ccc(NC(=N)N)cc2C)o1.Cl.Cl [Compound 5b, 2,5-Bis(4-guanidino-2-methylphenyl)furan dihydrochloride] | 265 to 271 °C (dec.) | 17.8 | 6.9 | 2.08 | 33.4 | 33.4 | 1 to 3 | activity against C. albicans, in words [3]: fungicidal; MIC [5, 7]: 1 to 3 µg/mL
10 | COc1cc(NC(=N)N)ccc1-c1ccc(-c2ccc(NC(=N)N)cc2OC)o1.Cl.Cl [Compound 5c, 2,5-Bis(4-guanidino-2-methoxyphenyl)furan dihydrochloride] |  | 15.2 | 2.8 | 100 | 100 | 100 | 10 | MIC [5, 7]: 16 µg/mL
11 | Cl.Cl.N=C(N)Nc1ccc(-c2ccc(-c3ccc(NC(=N)N)cc3Cl)o2)c(Cl)c1 [Compound 5d, 2,5-Bis(2-chloro-4-guanidinophenyl)furan dihydrochloride] | 300 to 304 °C (dec.) | 26.1 | 4.7 | 100 | 100 | 100 | 10 | MIC [5, 7]: 4 µg/mL
12 | Cl.Cl.N=C(N)Nc1ccc(-c2ccc(-c3ccc(NC(=N)N)cc3C(F)(F)F)o2)c(C(F)(F)F)c1 [Compound 5e, 2,5-Bis (4-guanidino-2-trifluoromethylphenyl) furan dihydrochloride] |  | 5.9 |  | 10 | 100 | 100 | 10 | MIC [5, 7]: 8 µg/mL
13 | Cc1cc(NC(=N)N)cc(C)c1-c1ccc(-c2c(C)cc(NC(=N)N)cc2C)o1.Cl.Cl [Compound 5f, 2,5-Bis(4-guanidino-2,6-dimethylphenyl)furan dihydrochloride] |  | 2.7 | 1.4 |  |  |  |  | 
14 | Cl.Cl.N=C(Nc1ccc(-c2ccc(-c3ccc(NC(=N)c4ccccc4)cc3)o2)cc1)c1ccccc1 [Compound 6b, 2,5-Bis[4-(benzimidoylamino)phenyl]furan Dihydrochloride] |  | 28.6 | 15.0 | 50 |  |  | 25 | 
15 | Cc1ccc(C(=N)Nc2ccc(-c3ccc(-c4ccc(NC(=N)c5ccc(C)cc5)cc4)o3)cc2)cc1.Cl.Cl [Compound 6c, 2,5-Bis [4-[(4-methylbenzimidoyl)amino]phenyl]furan Dihydrochloride] | 348 to 350.5 °C | >28 | 15.4 |  |  |  | > 100 | MIC [5, 7]: ≤ 6.25 µg/mL
16 | c1cc(-c2ccc(-c3ccc(N=NC4CCCCC4)cc3)o2)ccc1N=NC1CCCCC1 [Compound 6d, 2,5-Bis[4-(cyclohexylimino)aminophenyl]furan] |  | 26.7 | 12.8 |  | > 100 | 100 (≈ 227 µM) | > 100 | activity against M. tuberculosis, in words [5]: some activity; MIC [5, 7]: ≤ 6.25 µg/mL
17 | Br.Br.CC(=N)Nc1ccc(-c2ccc(-c3ccc(NC(C)=N)cc3)o2)cc1 [Compound 6e, 2,5-Bis[4-(acetimidoyl)aminophenyl]furan Dihydrobromide] | 307 to 309.5 °C (dec.) | 15.9 | 6.0 |  | > 100 | 100 | > 100 | inhibition at 6.25 µg/mL [5]: 0%
18 | Br.Br.CC(=N)Nc1ccc(-c2ccc(-c3ccc(NC(C)=N)cc3C)o2)c(C)c1 [Compound 6f, 2,5-Bis [4-(acetimidoyl)amino-2-methylphenyl]furan Dihydrobromide] | 282.5 to 284 °C (dec.) | 14.5 | 2.4 |  |  | > 100 | > 100 | inhibition at 6.25 µg/mL [5]: 18%
19 | Cc1cc(NC(=N)c2ccccc2)ccc1-c1ccc(-c2ccc(NC(=N)c3ccccc3)cc2C)o1 [Compound 6g, 2,5-Bis[4-(benzimidoyl)amino-2-methylphenyl]furan] |  | 24.9 | 7.8 | 6.25 (≈ 12.9 µM) |  |  | 3.12 (≈ 6.44 µM) | 
20 | Cc1cc(N=Nc2ccccn2)cc(C)c1-c1ccc(-c2c(C)cc(N=Nc3ccccn3)cc2C)o1 [Compound 6m, 2,5-Bis[2,6-dimethyl-4-(2-pyridylimino)aminophenyl]furan] |  | 5.7 | 1.2 | > 100 | > 100 | 10 (≈ 20.6 µM) | 10 (≈ 20.6 µM) | 
21 | N=C(Nc1ccc(-c2ccc(-c3ccc(NC(=N)c4ccccc4)cc3)s2)cc1)c1ccccc1 [DB 653, 2,5-Bis[4-(benzimidoyl)aminophenyl]thiophene] |  | 20.2 | 12.8 |  |  | > 100 | > 100 | 
22 | N=C(N)Nc1ccc(-c2ccc(-c3ccc(NC(=N)N)cc3)s2)cc1 [DB 686] |  |  |  |  |  |  |  | C. albicans MFC [3, 6]: 4.17 µg/mL; C. albicans MIC [3, 6]: 4.17 µg/mL; MTb MIC ([5]; H37Rv, lowest concentration effecting ≧90% reduction of fluorescence): <1 µg/mL
23 | OC(Cn1cncn1)(Cn1cncn1)c1ccc(F)cc1F [Fluconazole, reference compound] |  |  |  |  |  |  |  | activity against C. albicans, in words [3]: fungistatic
